Measured values from the NIST ThermoML archive (doi:10.1016/j.jct.2015.08.002).

Experiment: mn = molality of the nth substance listed, in mol/kg
Conditions: 298 K, Wilhelmi plate tensiometer

CCCCCCCCCCCC(=O)[O-].[Na+] [sodium dodecanoate] + O
Conditions	surface tension liquid-gas [mN/m]
m1 = 0.001	64.1
m1 = 0.002	62.2
m1 = 0.003	57.6
m1 = 0.004	54.4
m1 = 0.005	54.5
m1 = 0.006	49.9
m1 = 0.007	45.8
m1 = 0.008	44.9
m1 = 0.009	44
m1 = 0.01	44.2
m1 = 0.0105	41.7
m1 = 0.011	41.6
m1 = 0.012	40.9
m1 = 0.013	37.4
m1 = 0.014	37.3
m1 = 0.015	37.9

CCCCCCCCCCCCP(=O)([O-])[O-].[Na+].[Na+] [sodium dodecylphosphonate] + O
Conditions	surface tension liquid-gas [mN/m]
m1 = 0.002	66.6
m1 = 0.004	58.5
m1 = 0.006	52.9
m1 = 0.008	53.5
m1 = 0.01	52.4
m1 = 0.012	49.6
m1 = 0.014	47.4
m1 = 0.016	44.4
m1 = 0.017	44
m1 = 0.0175	40.9
m1 = 0.018	40.1
m1 = 0.0185	39.4
m1 = 0.019	40.4
m1 = 0.02	39.3
m1 = 0.021	39.6
m1 = 0.025	38.2
m1 = 0.04	36.9
m1 = 0.05	39.3

CCCCCCCC/C=C\CCCCCCCC(=O)[O-].[Na+] [sodium oleate] + O
Conditions	surface tension liquid-gas [mN/m]
m1 = 5e-06	62.8
m1 = 1e-05	58
m1 = 2e-05	51.8
m1 = 3e-05	51.2
m1 = 4e-05	50.7
m1 = 5e-05	49.9
m1 = 0.0001	42
m1 = 0.0003	32.9
m1 = 0.0005	29.4
m1 = 0.0009	26.6
m1 = 0.0013	25.6
m1 = 0.0015	25.4
m1 = 0.0018	25.1
m1 = 0.002	25.2
m1 = 0.003	25.1
